Results taken from ChEMBL document CHEMBL5331088, “Design and synthesis of novel halogen rich salicylanilides as potential antileishmanial agents” (Eur J Med Chem, 2023).

Experiments:
[1] = tested on: Leishmania donovani; assay: Antileishmanial activity against Leishmania donovani amastigotes infected in J774.A1 macrophage assessed as inhibition of parasite growth by luciferase assay; type: functional, organism-based
[2] = Cytotoxicity against African green monkey Vero cells assessed as reduction in cell viability by MTT assay; type: toxicity, cell-based; conditions: chlorocebus sabaeus
[3] = Selectivity index, ratio of CC50 for cytotoxicity against African green monkey Vero cells to IC50 for antileishmanial activity against Leishmania donovani amastigotes infected in J774.A1 macrophage; type: toxicity, cell-based; conditions: read-out: Ratio CC50/IC50
[4] = Cytotoxicity against mouse J774A.1 cells assessed as reduction in cell viability by MTT assay; type: toxicity, cell-based, J774.A1
[5] = Selectivity index, ratio of CC50 for cytotoxicity against mouse J774.A1 cells to IC50 for antileishmanial activity against Leishmania donovani amastigotes infected in J774.A1 macrophage; type: toxicity, cell-based; conditions: read-out: Ratio CC50/IC50
[6] = tested on: Leishmania donovani; assay: Antileishmanial activity against Leishmania donovani amastigotes infected in golden hamster model assessed as inhibition of splenic parasite burden at 50 mg/kg,ip for 5 consecutive days measured after 28 days of post treatment; type: functional; conditions: for inhibition in vivo at 50 mg/kg: 672 h, time 28 day
[7] = tested on: Leishmania donovani; assay: Antileishmanial activity against Leishmania donovani amastigotes infected in golden hamster model assessed as inhibition of splenic parasite burden at 50 mg/kg,ip for 5 consecutive days measured after 7 days of post treatment; type: functional; conditions: for inhibition in vivo at 50 mg/kg: 168 h, time 7 day
[8] = Leishmania donovani, J774.A1, read-out: IC50

Compound	IC50 [1, 8]	CC50 [2]	selectivity ratio [3]	CC50 [4]	selectivity ratio [5]	IC50 [1]	inhibition in vivo at 50 mg/kg [6]	inhibition in vivo at 50 mg/kg [7]	inhibition ([6]; time 28.0 day)	inhibition ([7]; time 7.0 day)
O=C(Nc1cccc(C(F)(F)F)c1)c1cc(Cl)ccc1O	3.47 µM	3.17 µM	–	–	–	–	–	–	–	–
O=C(Nc1ccc([N+](=O)[O-])cc1Cl)c1cc(Cl)ccc1O [NICLOSAMIDE]	3.68 µM	3.06 µM	0.61	42.1 µM	11.4	–	–	–	–	–
O=C(Nc1ccc([N+](=O)[O-])cc1Cl)c1ccccc1	–	–	–	–	–	Not Active	–	–	–	–
O=C(Nc1ccccc1)c1cccc(Cl)c1	–	–	–	–	–	Not Active	–	–	–	–
O=C(Nc1ccc(Br)c(C(F)(F)F)c1)c1cc(Cl)ccc1O	3.5 µM	2.54 µM	0.72	46.6 µM	13.3	–	–	–	–	–
O=C(Nc1ccc(Cl)c(C(F)(F)F)c1)c1cc(Cl)ccc1O	4 µM	4.31 µM	1.08	52.4 µM	13.1	–	–	–	–	–
O=C(Nc1ccc(F)c(F)c1)c1cc(Cl)ccc1O	3.54 µM	10.6 µM	2.99	51.2 µM	14.5	–	–	–	–	–
O=C(Nc1ccccc1Cl)c1cc(Cl)ccc1O	2.62 µM	13.2 µM	5.02	46.5 µM	17.7	–	–	–	–	–
CCCCCCCCCCCCCCCCOP(=O)([O-])OCC[N+](C)(C)C [MILTEFOSINE]	9.25 µM	51.8 µM	5.6	53.3 µM	5.76	–	–	–	–	–
O=C(Nc1ccc(F)c(Cl)c1)c1cc(Cl)ccc1O	2.89 µM	14.5 µM	5.02	52.4 µM	18.1	–	16.5%	25.1%	–	–
O=C(Nc1ccc(Br)cc1)c1cc(Cl)ccc1O	3.83 µM	10.1 µM	2.64	50.8 µM	13.3	–	–	–	–	–
O=C(Nc1ccc([N+](=O)[O-])cc1Cl)c1cccc(Cl)c1	–	–	–	–	–	Not Active	–	–	–	–
Sodium stibogluconate	–	–	–	–	–	–	–	–	85.4%	81.4%
O=C(Nc1ccccc1)c1ccccc1O [SALICYLANILIDE]	–	–	–	–	–	Not Active	–	–	–	–
O=C(Nc1ccc([N+](=O)[O-])cc1Cl)c1ccccc1O	3.27 µM	7.29 µM	2.23	42.1 µM	12.9	–	–	–	–	–
O=C(Nc1ccc(F)c(F)c1)c1ccccc1O	7.36 µM	45.4 µM	6.17	43.9 µM	5.96	–	–	–	–	–
O=C(Nc1ccccc1F)c1cc(Cl)ccc1O	3.95 µM	12.1 µM	3.06	44 µM	11.1	–	–	–	–	–

Compound	IC50 [1, 8]	CC50 [2]	selectivity ratio [3]	CC50 [4]	selectivity ratio [5]	IC50 [1]	inhibition in vivo at 50 mg/kg [6]	inhibition in vivo at 50 mg/kg [7]	inhibition ([6]; time 28.0 day)	inhibition ([7]; time 7.0 day)
O=C(Nc1ccc(F)c(Cl)c1)c1ccccc1O	–	–	–	–	–	Not Active	–	–	–	–
O=C(Nc1ccc(Br)c(C(F)(F)F)c1)c1ccccc1O	3.82 µM	4.33 µM	1.13	44.2 µM	11.6	–	–	–	–	–
O=C(Nc1ccc(F)cc1)c1cc(Cl)ccc1O	–	–	–	–	–	Not Active	–	–	–	–
O=C(Nc1cccc(Cl)c1)c1cc(Cl)ccc1O	4.62 µM	13.9 µM	3	50.5 µM	10.9	–	–	–	–	–
O=C(Nc1ccc([N+](=O)[O-])cc1F)c1cc(Cl)ccc1O	3.98 µM	3.23 µM	0.81	43.1 µM	10.8	–	–	–	–	–
O=C(Nc1cc(Cl)cc(Cl)c1)c1ccccc1O	7.97 µM	7.09 µM	0.89	42.2 µM	5.3	–	–	–	–	–
O=C(Nc1cc(Cl)cc(Cl)c1O)c1c(O)c(Cl)cc(Cl)c1Cl [OXYCLOZANIDE]	7.71 µM	156 µM	31.2	42.4 µM	5.49	–	–	–	–	–
O=C(Nc1ccc(Cl)cc1)c1cc(Cl)ccc1O	2.09 µM	16.3 µM	7.8	39 µM	18.7	–	65.2%	63.1%	–	–
O=C(Nc1ccc(Cl)c(C(F)(F)F)c1)c1ccccc1O	–	–	–	–	–	Not Active	–	–	–	–
O=C(Nc1ccc(F)cc1)c1ccccc1O	–	–	–	–	–	Not Active	–	–	–	–
O=C(Nc1ccccc1)c1cc(Cl)ccc1O	–	–	–	–	–	Not Active	–	–	–	–
O=C(Nc1ccccc1F)c1ccccc1O	–	–	–	–	–	Not Active	–	–	–	–
O=C(Nc1ccc(F)cc1[N+](=O)[O-])c1cc(Cl)ccc1O	3.88 µM	21.9 µM	5.65	49.6 µM	12.8	–	–	–	–	–
O=C(Nc1ccc(F)cc1[N+](=O)[O-])c1ccccc1O	7.47 µM	65.2 µM	8.73	41.1 µM	5.5	–	–	–	–	–
O=C(Nc1ccccc1)c1ccccc1 [N-PHENYLBENZAMIDE]	–	–	–	–	–	Not Active	–	–	–	–
O=C(Nc1cc(Cl)cc(Cl)c1)c1cc(Cl)ccc1O	3.83 µM	6.49 µM	1.69	38.8 µM	10.1	–	–	–	–	–
O=C(Nc1ccc([N+](=O)[O-])cc1F)c1ccccc1O	4.06 µM	11.7 µM	2.89	42.8 µM	10.5	–	–	–	–	–
